According to article PMC3738524, “Bioenergetic and Antiapoptotic Properties of Mitochondria from Cultured Human Prostate Cancer Cell Lines PC-3, DU145 and LNCaP” (PLoS ONE, 2013):
Like-named read-outs stand apart in the source and are kept apart here.

Molecular target: T1, Complex I (NADH dehydrogenase) (Homo sapiens, UniProt P49821)
T1 construct: gene NDUFV1
Conditions: optimal decylubiquinone as acceptor, 30 °C, '+' printed for ±

T1 sequence (P19404 33-249): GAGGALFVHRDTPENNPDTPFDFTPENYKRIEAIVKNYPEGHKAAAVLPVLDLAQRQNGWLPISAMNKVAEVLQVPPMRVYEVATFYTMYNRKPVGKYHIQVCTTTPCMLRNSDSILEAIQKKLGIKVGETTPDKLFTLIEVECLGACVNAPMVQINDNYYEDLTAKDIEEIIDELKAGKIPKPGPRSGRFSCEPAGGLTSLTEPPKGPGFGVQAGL
T1 sequence (P28331 24-727, further chain): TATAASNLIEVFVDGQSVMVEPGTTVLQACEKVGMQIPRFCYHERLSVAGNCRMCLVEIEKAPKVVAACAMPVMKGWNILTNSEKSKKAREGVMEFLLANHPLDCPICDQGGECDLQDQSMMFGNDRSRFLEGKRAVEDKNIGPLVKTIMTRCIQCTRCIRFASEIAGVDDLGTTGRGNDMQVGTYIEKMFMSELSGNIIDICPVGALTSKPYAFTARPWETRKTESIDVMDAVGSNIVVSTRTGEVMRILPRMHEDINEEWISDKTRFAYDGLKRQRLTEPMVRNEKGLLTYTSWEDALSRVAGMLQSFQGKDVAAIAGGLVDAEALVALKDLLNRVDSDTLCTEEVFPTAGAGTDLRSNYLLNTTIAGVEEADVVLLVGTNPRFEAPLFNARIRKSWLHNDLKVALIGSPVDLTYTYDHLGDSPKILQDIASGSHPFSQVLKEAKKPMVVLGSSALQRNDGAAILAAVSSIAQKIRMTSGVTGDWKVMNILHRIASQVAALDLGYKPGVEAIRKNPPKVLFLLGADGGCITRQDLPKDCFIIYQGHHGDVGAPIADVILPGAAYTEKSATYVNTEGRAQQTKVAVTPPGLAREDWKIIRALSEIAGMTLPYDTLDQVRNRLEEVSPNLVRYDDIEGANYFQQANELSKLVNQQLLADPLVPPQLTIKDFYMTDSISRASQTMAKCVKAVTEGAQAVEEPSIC
T1 sequence (P49821 21-464): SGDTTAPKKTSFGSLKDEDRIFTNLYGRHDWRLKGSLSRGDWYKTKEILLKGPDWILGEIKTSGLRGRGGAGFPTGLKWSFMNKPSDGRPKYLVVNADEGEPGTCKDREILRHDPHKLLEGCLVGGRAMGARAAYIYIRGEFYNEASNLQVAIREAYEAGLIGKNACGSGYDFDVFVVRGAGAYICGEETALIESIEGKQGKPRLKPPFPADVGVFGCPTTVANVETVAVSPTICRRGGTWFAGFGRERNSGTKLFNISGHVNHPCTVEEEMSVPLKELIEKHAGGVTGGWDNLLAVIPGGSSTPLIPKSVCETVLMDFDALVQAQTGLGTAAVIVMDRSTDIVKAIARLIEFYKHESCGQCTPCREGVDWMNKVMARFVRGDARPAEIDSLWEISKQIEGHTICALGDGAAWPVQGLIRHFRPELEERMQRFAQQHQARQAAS

NC(=O)C1=CN([C@@H]2O[C@H](COP(=O)(O)OP(=O)(O)OC[C@H]3O[C@@H](n4cnc5c(N)ncnc54)[C@H](O)[C@@H]3O)[C@@H](O)[C@H]2O)C=CC1 [NADH]
KM^NADH (EBV-transformed normal lymphoblastoid HLB cells): 1.8+0.1 µM | KM^NADH (fibrosarcoma HT1080C cells): 5+2 µM | KM^NADH (normal prostate epithelial PrEC cells): 4+0.5 µM | KM^NADH (prostate cancer cells PC-3, DU145 and LNCaP (one common value printed)): 20+2.5 µM
